From US12495801B2, “Bacillus subtilis JCK-1398 strain inducing resistance in various plants, and composition and method for controlling pine wilt disease by using same” (Republic of Korea (National institute of forest science), priority 2020, dated 2025)

Columns and labels:
Assay type in all cases: in vivo
[1] = test system: Xanthomonas euvesicatoria; assay: Control effect against bacterial spot on chili pepper plants; settings: control agrochemical, 1,000-fold diluted solution
Experimental: To 500-fold and 5,000-fold diluted solutions of a spray-dried powder of the JCK-1398 strain prepared by the same method as in Example 8 were added the surfactant Tween® 20 (250 μg/ml), and then 8- to 9-leaf stage chili pepper plants (Hungnong Seed, Bultap chili pepper) were treated with the resultant solutions at 20 ml per pot by soil drenching and foliar spraying. Each sample was applied 4 days before inoculation with Xanthomonas euvesicatoria inoculum. As for a control group, the synthetic agrochemical pesticides Sungbocycline wettable powder (oxytetracycline, SUNGBO Chemicals) and Ilpum wettable powder (oxolinic acid 20% WP, Dongbang Agro) each were applied at a predetermined amount (1,000-fold diluted solution), and as for an untreated group, only Tween® 20 (250 μg/ml) was applied in the same manner without chemical agents.
Then, Xanthomonas euvesicatoria was subjected to static culture in TSA at 30° C. for about 48 hours, and then the cells were harvested using 2 ml of sterile water. The inoculum was prepared by diluting the harvested Xanthomonas euvesicatoria to an optical density value of 0.1 at 600 nm through a UV spectrometer. […]
Each treatment was repeated three times, and each experiment was repeated twice. The disease severity was determined using an index of 0 to 6 according to Abbasi, and thus the severity of bacterial spot formed on chili pepper leaves was investigated. […]

[2] = test system: Bursaphelenchus xylophilus; assay: Pine wilt disease seedling test of aerial spraying formulations (Example 11); settings: EB control group; 40 days after inoculation
Experimental: In order to investigate the control effects of the Bacillus subtilis JCK-1398 strain against pine wilt disease through aerial spraying in adult trees, a novel formulation was prepared. The JCK-1398 10% SC formulation was formulated with a composition of a spray-dried powder of JCK-1398 (10.0%), CR-NF 135B (3.0%), xanthan gum (0.01%), a defoamer (0.1%), propylene glycol (5.0%), sodium benzoate (0.2%), and water (81.69%).
The JCK-1398 10% SC formulation and the JCK-1398 20% SC formulation (existing formulation, Example 9) each were prepared into 10-fold, 100-fold, and 500-fold diluted solutions, and each pine tree aged 3 years was foliar-sprayed with 100 μl ( 1/50 of the existing treatment amount) of each of the diluted solutions twice at an interval of 7 days, 2 weeks and 1 week before inoculation. Last, the inoculation with Bursaphelenchus xylophilus was performed 7 days after the second treatment with the diluted solution by the same method as in Example 4-4, and the degree of wilting was determined 40 days after the inoculation with Bursaphelenchus xylophilus.

[3] = test system: Bursaphelenchus xylophilus; assay: Pine wilt disease field tests, Pinus densiflora adult trees aged 15 years (Example 9); settings: for Disease severity (%): adult trees, JCK-1398 = 50-fold diluted spray-dried powder foliar spray, EB = A-Pharm trunk injection; for Control value (%): foliar spray, EB by trunk injection
Experimental: Based on the above results, the field test was additionally performed using Pinus densiflora adult trees aged 15 years (root diameter: 8-11 cm, height: 6-8 m) in order to investigate the control effect of the Bacillus subtilis JCK-1398 strain against pine wilt disease in adult trees. The field test was performed twice in 2018 (first field test) and 2019 (second field test). In the first field test, a spray-dried powder of a culture of the JCK-1398 strain (prepared by the same method as in Example 8) was used, and in the second field test, a spray-dried powder of a culture of the JCK-1398 strain was formulated into JCK-1398 20% SC (emulsion) before use. The JCK-1398 20% SC formulation was formulated with a composition of a JCK-1398 spray-dried powder (20.0%), CR-NF 135B (4.5%), xanthan gum (0.03%), a defoamer (0.1%), and water (75.37%).
The spray-dried powder of the culture of the JCK-1398 strain and the JCK-1398 20% SC formulation were diluted 50-fold and 2000-fold, respectively, in an aqueous solution containing 250 μg/ml Tween® 20, and then placed in a sprayer, and each pine tree was foliar-sprayed with about 1 L of each diluted solution. The treatment by foliar spraying was performed twice at an interval of 1 month. One week after each second treatment, each pine tree was inoculated, by trunk injection, with Bursaphelenchus xylophilus at 20,000 nematodes in the first field test and at 10,000 nematodes in the second field test. For a control group, A-Pharm (emamectin benzoate 2.15%, emulsion, Syngenta) was applied at 1 ml per diameter at breast by trunk injection, and the A-Pharm was applied once 1 week before the inoculation with Bursaphelenchus xylophilus. The untreated group was treated with only 250 μg/ml Tween@ 20 without chemical agents in the same manner. The results are shown in FIGS. 7A to 7C and Tables 13 and 14.

[4] = test system: Bursaphelenchus xylophilus; assay: Pine wilt disease control by culture, culture filtrate and cell fraction (Example 6); settings: samples at OD 0.8, 5 ml foliar spray; EB 20 mg/ml by trunk injection
Experimental: The JCK-1398 strain was cultured by the same method as in Example 4-1 and adjusted to an optical density value of 0.8.
The culture of the JCK-1398 strain was separated into a culture filtrate and a cell fraction by centrifugation (1,300 rpm, 15 min). The precipitated cell fraction was suspended by addition of the same volume of phosphate-buffered saline used before centrifugation. Each pine tree was sufficiently pre-treated with 5 ml of Tween® 20 (250 μg/ml) and then dried for 2 hours, so as to enable each sample (a culture, a culture filtrate, and a cell fraction) to be well adsorbed into leaves. Then, each of the culture, culture filtrate, and cell fraction was dissolved in an aqueous solution containing Tween® 20 (250 μg/ml) to an optical density value of 0.8, and then placed in a fine sprayer and each pine tree was foliar-sprayed with 5 ml of each sample. The nematicidal substance emamectin benzoate as a control group was dissolved in an aqueous solution containing 10% methanol to 20 mg/ml, followed by trunk injection.

CCn1cc(C(=O)O)c(=O)c2cc3c(cc21)OCO3 [Oxolinic acid, oxolinic acid]
Control value (%) ([1]; Folia spraying): 27.1%

CN(C)[C@@H]1C(O)=C(C(N)=O)C(=O)[C@@]2(O)C(O)=C3C(=O)c4c(O)cccc4[C@@](C)(O)[C@H]3[C@H](O)[C@@H]12 [Oxytetracyclin, oxytetracycline]
Control value (%) ([1]; Soil drenching): 20.8%

emamectin benzoate [EB]
Control value (%) [2]: 100.0%
Disease severity (%) ([3]; 1 Month after inoculation): 0%
Disease severity (%) ([3]; 2 Months after inoculation): 1%
Disease severity (%) ([3]; 3 Months after inoculation): 2.5%
Disease severity (%) ([3]; 4 Months after inoculation): 7.5%
Disease severity (%) ([3]; 5 Months after inoculation): 7.5%
Disease severity (%) ([3]; 6 Months after inoculation): 10%
Control value (%) ([3]; 2018-Year field test, powder 50-fold diluted, 20,000 nematodes): 86.2%
Control value (%) ([3]; 2019-Year field test, 20% SC 2000-fold diluted, 10,000 nematodes): 75%
Control value (%) [4]: 97.0%
